According to patent US20190254992A1, “COMBINATIONS OF BETA-GLYCOLIPIDES AND 4-[(2-AMINO-3,5-DIBROMOPHENYL)METHYLAMINO]CYCLOHEXAN-1-OL, COMPOSITIONS AND USES THEREOF IN THE TREATMENT OF DISORDERS ASSOCIATED WITH PROTEIN MISFOLDING AND PROTEIN AGGREGATIONS” (HADASIT MEDICAL RESEARCH SERVICES & DEVELOPMENT LIMITED, priority 2016, published 2019):

Tests used:
[1] = tested on: serum cytokines (IL-1α, IL-4, IFN-γ, IL-6); assay: Serum cytokine measurement (MILLIPLEX/Luminex) in ConA immune-mediated hepatitis mice; type: in vivo, C57Bl/6 mice; settings: oral, daily for 5 days, ConA-injected mice; for serum IL-1a: control group A 206.5; for serum IL-6: control group A 11768
Protocol: Male C57Bl/6 mice (12 weeks old) were obtained from Harlan Laboratories (Jerusalem, Israel) and maintained in the Animal Core of the Hadassah-Hebrew University Medical School. Mice were kept at 11-12 weeks of age and maintained in the Animal Core of the Hadassah-Hebrew University Medical School. All mice were administered standard laboratory chow and water ad libitum and kept in a 12-hour light/dark cycle. All experiments were performed in accordance with the guidelines of the Hebrew University-Hadassah Institutional Committee for Care and Use of Laboratory Animals (IACUC protocol number: MD-16-14986-3).
Four groups of mice (n=4) were studied. Mice in all groups were injected with Concanavalin A (Con A, […]). Mice in control group A were treated with PBS. Mice in group B were orally administered 6 mg of GC, per mouse daily for 5 days prior to ConA injection.
Cytokine assessment was performed by MILLIPLEX® Analytes (EMD Millipore Corporation, Missouri 63304 U.S.A.) based on the Luminex xMAP® technology for performing immunoassays on the surface of fluorescent-coded magnetic beads MagPlex®-C microspheres. Acquiring and analyzing the data were performed using the Luminex analyzer (MAGPIX®) software. Cytokines assessment was measured by mean fluorescence intensity (MFI).

[2] = tested on: immune-mediated liver injury; assay: Serum liver enzymes (ALT, AST) in ConA immune-mediated hepatitis mice; type: in vivo, C57Bl/6 mice; settings: oral, daily for 5 days, ConA-injected mice; for AST levels: control group A 9140; for ALT levels: control group A 24040
Protocol: Male C57Bl/6 mice (12 weeks old) were obtained from Harlan Laboratories (Jerusalem, Israel) and maintained in the Animal Core of the Hadassah-Hebrew University Medical School. Mice were kept at 11-12 weeks of age and maintained in the Animal Core of the Hadassah-Hebrew University Medical School. All mice were administered standard laboratory chow and water ad libitum and kept in a 12-hour light/dark cycle. All experiments were performed in accordance with the guidelines of the Hebrew University-Hadassah Institutional Committee for Care and Use of Laboratory Animals (IACUC protocol number: MD-16-14986-3). Four groups of mice (n=4) were studied. Mice in all groups were injected with Concanavalin A (Con A, […]). Mice in control group A were treated with PBS. Mice in group B were orally administered 6 mg of GC, per mouse daily for 5 days prior to ConA injection. […] Serum aspartate aminotransferase (AST) and alanine aminotransferase (ALT) levels were determined with an automatic analyzer on all mice in all groups.

type 3 neuropathic GD = settings: high doses, cited from earlier work
[3] = tested on: non-neuronopathic form of GD; settings: patients with non-neuronopathic GD; cited from earlier work
glucosylceramidase = settings: fibroblasts from healthy controls, Gaucher patients, heterozygous GBA mutation with and without Parkinson's disease; cited from earlier work
alpha-synuclein = settings: neuroblastoma line engineered to overexpress alpha-synuclein; cited from earlier work

Row | Compound | IFN-γ change (in words) [1] | serum IL-1a [1] [pg/mL] | serum IL-6 [1] [pg/mL] | AST levels [2] [IU] | ALT levels [2] [IU] | subjective-functional scores and objective scores (VEP, ocular movements) (type 3 neuropathic GD; 5 individuals with type 3 neuropathic GD) | GCase activity in lymphocytes (type 3 neuropathic GD; type 3 neuropathic GD patients) | clinical outcome of ambroxol treatment [3] | glucosylceramidase activity (glucosylceramidase) | markers of oxidative stress (glucosylceramidase) | alpha-synuclein levels (alpha-synuclein) | IFN-γ ([1]; control group A 643) [pg/mL]
1 | Nc1c(Br)cc(Br)cc1CN[C@H]1CC[C@H](O)CC1 [Ambroxol, trans-4-(2-Amino-3,5-dibrombenzylamino)-cyclohexanol] | did not show any decrease | 131 | 9504 | 8516 | 16455 | substantial clinical improvement | Increased | disease stability | increased | reduced | reduces | –
2 | B-glucosylceramide [GC] | – | 48 | 984 | 2939 | 4198 | – | – | – | – | – | – | 36
